These results are taken from PubChem BioAssay (NCI).

Several values for one entry are separate records, joined by “and”; a condition that tells them apart may be missing. Equal values may be shown once.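 Growth conditions: 96-well plates. Treatment: test compound, 48 hours, 5 concentrations. Analysis: linear interpolation between bracketing concentrations; unreached endpoints set to highest concentration. The concentration for 50% growth inhibition is given as GI50. TGI marks complete inhibition of growth.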

Among the test systems are EKVX NSCLC; HCT-15 colon; U251 CNS; SK-MEL-2 melanoma; SN12C renal; MCF7 breast; KM12 colon; HCT-116 colon; CCRF-CEM leukemia; SK-MEL-28 melanoma.
Assay in all cases: growth of human tumour cells (NCI), 48 h

In the case of `NC(=O)c1ccccc1NC(=O)c1ccccc1Cl`, the GI50 in the experiment on EKVX NSCLC, in the experiment on HCT-15 colon, in the experiment with U251 CNS, in the experiment on SK-MEL-2 melanoma, in the experiment with SN12C renal and in the experiment with MCF7 breast was greater than 100000 nM in each case. The GI50 in the experiment with KM12 colon, in the experiment on HCT-116 colon, in the experiment on CCRF-CEM leukemia and with SK-MEL-28 melanoma was greater than 100000 nM each time. The TGI in the experiment on EKVX NSCLC, in the experiment on HCT-15 colon, with U251 CNS, with SK-MEL-2 melanoma, in the experiment with SN12C renal and with MCF7 breast was greater than 100000 nM in each case. Moreover, the TGI in the experiment with KM12 colon, in the experiment on HCT-116 colon, in the experiment with CCRF-CEM leukemia and in the experiment on SK-MEL-28 melanoma was greater than 100000 nM in each case.

On to `CC1[C@@H]2CC=C3[C@H]4CCC5Cc6nc7c(nc6C[C@@]5(C)C4(O)CC(=O)[C@]32CO[C@]12OC(C)(C)CC2O)CC1CC[C@@H]2C3=C[C@H]4O[C@@]5(O[C@@](C)(CO)C[C@@H]5O)C(C)[C@@]4(O)[C@]3(C)[C@@H](O)CC2[C@]1(C)C7` (some centres not stated), for which the GI50 is 6.15 nM and 9.96 nM with EKVX NSCLC; 2.34 nM and 12.7 nM in the experiment on HCT-15 colon; 0.112 nM and 0.36 nM with U251 CNS; 0.29 nM and 1.17 nM in the experiment with SK-MEL-2 melanoma; 0.126 nM and 0.441 nM with CCRF-CEM leukemia; 0.236 nM in the experiment on SK-MEL-28 melanoma. In addition, the TGI in the experiment with EKVX NSCLC is 152 nM and 814 nM; in the experiment with HCT-15 colon, 73.7 nM and 589 nM; in the experiment on U251 CNS, 74.5 nM and 95.5 nM; in the experiment with SK-MEL-2 melanoma, 16.4 nM and 29.4 nM; with SN12C renal, greater than 3600 nM; in the experiment on MCF7 breast, 441 nM. For the same compound, the TGI in the experiment on HCT-116 colon was 105 nM and 846 nM; in the experiment with CCRF-CEM leukemia, 7.23 nM and 63.8 nM; in the experiment with SK-MEL-28 melanoma it was 2.01 nM.

On to `O=S(=O)(NC1=NCCN1C(=S)SN1CCn2c1nsc2=S)c1ccccc1Cl`, for which the GI50 was 36600 nM in the experiment on EKVX NSCLC; 18700 nM with HCT-15 colon; 21400 nM in the experiment on U251 CNS; 16900 nM in the experiment on SK-MEL-2 melanoma; 31600 nM in the experiment on SN12C renal; 11500 nM in the experiment with MCF7 breast. For the same compound, the GI50 is 17000 nM in the experiment with KM12 colon, 12200 nM with HCT-116 colon and 16100 nM in the experiment with SK-MEL-28 melanoma. The TGI was greater than 100000 nM in the experiment with EKVX NSCLC; 53000 nM with HCT-15 colon; 46000 nM with U251 CNS; 40000 nM in the experiment with SK-MEL-2 melanoma; greater than 100000 nM with SN12C renal; greater than 100000 nM in the experiment on MCF7 breast. The TGI in the experiment on KM12 colon is 42800 nM; with HCT-116 colon, 28200 nM; in the experiment on SK-MEL-28 melanoma, 65700 nM.

For the compound `CCOC(=O)C(C(=O)OCC)C(=O)c1ccccc1C(=O)c1ccccc1`, the TGI with EKVX NSCLC is 96700 nM; in the experiment with HCT-15 colon, greater than 100000 nM; with U251 CNS, greater than 100000 nM; in the experiment on SK-MEL-2 melanoma it was greater than 100000 nM; in the experiment with SN12C renal, greater than 100000 nM; in the experiment with MCF7 breast it was greater than 100000 nM. Further, the TGI in the experiment on KM12 colon, with HCT-116 colon and in the experiment on CCRF-CEM leukemia was greater than 100000 nM in each case.

Consider `COc1ccc(Cn2cc3c(c2-c2cc(OC)c(OC)c(OC)c2)CCc2cnoc2-3)cc1N`, for which the GI50 in the experiment with EKVX NSCLC is 235 nM; in the experiment on HCT-15 colon it was 45.4 nM; with U251 CNS, 52.3 nM; in the experiment on SN12C renal, 79.5 nM; in the experiment with MCF7 breast, 36 nM; in the experiment with KM12 colon it was 40.1 nM. The GI50 in the experiment on HCT-116 colon was 45 nM; in the experiment on CCRF-CEM leukemia, 38.4 nM; with SK-MEL-28 melanoma, 79.7 nM. Further, the TGI in the experiment with EKVX NSCLC was greater than 100000 nM; in the experiment on HCT-15 colon, greater than 100000 nM; in the experiment on U251 CNS, greater than 100000 nM; in the experiment on SN12C renal, greater than 100000 nM; in the experiment on MCF7 breast it was greater than 40000 nM; in the experiment on KM12 colon it was 1940 nM. In addition, the TGI in the experiment on HCT-116 colon is 2840 nM; in the experiment with SK-MEL-28 melanoma it was greater than 100000 nM.

Take `COc1cc(C2CC(=O)Nc3c2ccc2ccccc32)cc(Br)c1OC` (configuration not stated): the GI50 is 445 nM in the experiment on HCT-15 colon; 433 nM in the experiment with U251 CNS; 695 nM in the experiment on SK-MEL-2 melanoma; 1360 nM in the experiment with SN12C renal; 343 nM in the experiment with MCF7 breast; 532 nM in the experiment with KM12 colon. The results for the GI50 in the experiment on HCT-116 colon, with CCRF-CEM leukemia and in the experiment with SK-MEL-28 melanoma were 373 nM, 292 nM and 805 nM, respectively. Also, the TGI is greater than 90500 nM in the experiment on HCT-15 colon; greater than 37900 nM in the experiment with U251 CNS; greater than 100000 nM in the experiment with SK-MEL-2 melanoma; greater than 43600 nM with SN12C renal; greater than 40600 nM in the experiment on MCF7 breast; greater than 41200 nM with KM12 colon. The values for the TGI in the experiment on HCT-116 colon, in the experiment on CCRF-CEM leukemia and with SK-MEL-28 melanoma were greater than 34700 nM, 1410 nM and greater than 100000 nM, respectively.

On to `CN(C)CCSCCO`, for which the TGI with EKVX NSCLC, in the experiment on HCT-15 colon, in the experiment with U251 CNS, with SK-MEL-2 melanoma, in the experiment on SN12C renal and in the experiment with MCF7 breast was greater than 100000 nM in each case. In addition, the TGI in the experiment on KM12 colon, in the experiment with HCT-116 colon and in the experiment on SK-MEL-28 melanoma was greater than 100000 nM in each case.

Regarding `CC(C)C[C@H](NC(=O)[C@@H](NC(=O)c1cccc(-c2ccccc2)n1)[C@@H](C)O)B(O)O`, the GI50 in the experiment with HCT-15 colon is 17.6 nM and < 18.2 nM; in the experiment on U251 CNS, 25.1 nM and 17.6 nM; with SK-MEL-2 melanoma, 3.87 nM; with SN12C renal it was 15.1 nM and 19.3 nM; in the experiment on MCF7 breast it was 4.25 nM; in the experiment on KM12 colon, 13.2 nM and 12.7 nM. In addition, the GI50 in the experiment with HCT-116 colon is 3.44 nM; with SK-MEL-28 melanoma it was 4.73 nM. The TGI is 107 nM in the experiment on HCT-15 colon; 1920 nM in the experiment with U251 CNS; 18.7 nM and < 19.5 nM in the experiment on SK-MEL-2 melanoma; 413 nM in the experiment with SN12C renal; 36800 nM in the experiment with MCF7 breast; 67.2 nM and 22 nM with KM12 colon. For the same compound, the TGI in the experiment on HCT-116 colon is 14.2 nM and 12.7 nM; in the experiment with CCRF-CEM leukemia, greater than 5160 nM; in the experiment with SK-MEL-28 melanoma it was 41.9 nM and 56.3 nM.

Regarding `CCCCCCCCCCCCCCCCCCOc1ccccc1CC(=O)NCC[N+](C)(C)C`, the GI50 with EKVX NSCLC is 18000 nM; in the experiment with HCT-15 colon, 17000 nM; with SK-MEL-2 melanoma, 12700 nM; in the experiment on SN12C renal, 3670 nM; in the experiment with MCF7 breast it was 3770 nM; with HCT-116 colon, 7580 nM. Also, in the experiment on SK-MEL-28 melanoma, the GI50 is 10400 nM. In addition, the TGI in the experiment on EKVX NSCLC was 66000 nM; in the experiment with HCT-15 colon, 57400 nM; in the experiment on SK-MEL-2 melanoma, 44700 nM; in the experiment on SN12C renal it was 37900 nM; in the experiment on MCF7 breast, 34900 nM; in the experiment with HCT-116 colon, greater than 100000 nM. This compound also showed a TGI in the experiment with SK-MEL-28 melanoma of 45400 nM.
